Read-outs that look alike come from different tables or passages of the source.

The values that follow come from PMC10185773, “Interactions of the protein tyrosine phosphatase PTPN3 with viral and cellular partners through its PDZ domain: insights into structural determinants and phosphatase activity” (Frontiers in Molecular Biosciences, 2023).

Test [1] has as its target HPV16 E6 PBM (Human papillomavirus type 16) (UniProt P03126). Conditions: cited from earlier work.
In test [2] the target is HBc PBM (Hepatitis B virus) (UniProt P03149). Particulars: cited from earlier work.
Test [3] addresses HPV18 E6 PBM (Human papillomavirus type 18) (UniProt P06463). Particulars: cited from earlier work.
Test [4] deals with p38γ PBM (Homo sapiens) (UniProt P53778). Particulars: cited from earlier work.
Test [5] has as its target biotinylated peptide PBM-p38γ (12-mer, holdup bait). The experiment in a line: holdup assay; biotinylated PBM peptide on resin in 96-well plates; bacterial extracts with overexpressed MBP-PDZ domains incubated, filtered, flowthrough read by microfluidic capillary electrophoresis; binding intensity (BI), threshold 0.2.
The target of test [6] is T1, PTPN3-Bidomain (Homo sapiens, UniProt P26045).
T1 construct: 6xHis (N); made in house; host or cells: E. coli BL21 Star (DE3)
T1 sequence (P26045 488-913): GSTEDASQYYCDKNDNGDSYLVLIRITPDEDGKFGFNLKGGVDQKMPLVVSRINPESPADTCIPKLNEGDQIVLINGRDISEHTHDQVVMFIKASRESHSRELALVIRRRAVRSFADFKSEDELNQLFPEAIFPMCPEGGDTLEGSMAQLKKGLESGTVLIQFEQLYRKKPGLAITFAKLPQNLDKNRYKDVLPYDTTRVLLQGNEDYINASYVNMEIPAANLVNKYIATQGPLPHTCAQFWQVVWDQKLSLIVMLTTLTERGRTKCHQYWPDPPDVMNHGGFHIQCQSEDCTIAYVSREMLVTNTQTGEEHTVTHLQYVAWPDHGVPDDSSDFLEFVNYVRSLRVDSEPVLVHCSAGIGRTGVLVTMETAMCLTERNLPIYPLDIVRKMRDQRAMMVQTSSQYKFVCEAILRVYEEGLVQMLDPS
The experiment in a line: pNPP hydrolysis by PTPN3-Bidomain pre-incubated with PBM peptide. The format is biochemical. Conditions: Bidomain 75 nM + large excess of peptide (molar ratio 600:1, 30 min at 25°C), pNPP 19 µM-10 mM, pH 7.5, 25°C, A410, three independent experiments; for Km: substrate-inhibition Michaelis-Menten fit. Here is the method: We performed enzymatic assays on the constructs PTPN3-Bidomain, PTPN3-linker-PTP, PTPN3-shLinker-PTP (short linker, missing 23 residues) and PTPN3-PDZ (Figure 1). In all experiments, the phosphatase activity was assessed using the synthetic nonspecific phosphatase substrate p-nitrophenyl phosphate (pNPP), whose hydrolysis into p-nitrophenol (pNP) can be followed spectrophotometrically at 410 nm. Reactions were performed in 50 mM Tris-HCl, pH 7.5, 1 mM MgCl2, 150 mM NaCl, 0.5 mM.
TCEP The initial reaction rates were measured independently at pH 7.5 and at 25°C. pNPP was assayed for concentrations ranging from 19 μM to 10 mM at an enzyme concentration of 75 nM. […] The experimental data was therefore fitted to a corrected Michaelis-Menten equation to take into consideration this inhibition.
The equation is: Vo = Vmax [S]/(Km + [S] + [S]2/Ki) with Vo the initial rate, Vmax the maximal rate, [S] the substrate concentration and Ki the inhibition constant.
Phosphatase activity was measured by following the hydrolysis of pNPP as previously described ([Maisonneuve et al., 2014]). Absorbances were measured continuously at 410 nm for pNP, using a Thermo Scientific UV spectrometer equilibrated at 25°C. Initial linear reaction rates were calculated during a 60 s reaction. The kcat and KM constants were deduced from fitting the Michaelis-Menten equation with the Prism software. The data are representative of three independent experiments.
A large excess (molar ratio 600:1) of each peptide was incubated with PTPN3-Bidomain for 30’ at 25°C, and the initial rates of the dephosphorylation reaction were measured in the same range of pNPP concentrations.
To assess whether the PBM binding to the PDZ domain releases the catalytic inhibition as observed for PTPN4 ([Maisonneuve et al., 2014]), we added the PBM peptides of the PTPN3 cellular partners, PBM-TACE and PBM-p38γ, and the viral peptides PBM-16E6, PBM-HBc, in large excess ([…]) to PTPN3-Bidomain (Figure 7A; Table 3). For all peptides, a 2-fold decrease in kcat compared to PTPN3-linker-PTP is measured, as in the unbound Bidomain, while the KM remained unaffected (Table 3). Thus, we concluded that the PBM binding has no effect on PTPN3 catalytic activity in our conditions. Accordingly, the specificity constants (kcat/KM) of the complexed Bidomain are in the same range in comparison with the values of PTPN3-Bidomain (Table 3).

For test [7], the system named is library of human PDZ domains (266 PDZ domains, 97% of the human PDZome). Conditions: holdup against human PDZome; ref Genera et al., 2021; cited from earlier work. An excerpt: (§1) We generated a PDZome-binding profile of PBM-p38γ. Mean values of binding intensities (BI) ranked based on affinity are reported in Supplementary Material S1. The highest BI values indicate the PDZ domains recognized with the best affinities by the peptides used as bait. […] In recent work we established the PDZome-binding profile of PBM-HBc with 28 PDZ domains also identified as significant binders ([Genera et al., 2021]). Thus, this similar number of P ...

Test [8] has as its target T2, PTPN3-PDZ (Homo sapiens, UniProt P26045).
T2 construct: GST (N, cleaved yes); made in house; host or cells: E. coli BL21 Star (DE3)
T2 sequence (P26045 510-582 limits assumed): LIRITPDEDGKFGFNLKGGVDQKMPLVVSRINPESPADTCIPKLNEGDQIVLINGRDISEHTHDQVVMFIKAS
Particulars: holdup, biotinylated 12-mer peptide; threshold 0.2; ref Genera et al., 2021; cited from earlier work.
From the text: as §1

Test [9] has as its system PTPN4-PDZ. Particulars: holdup, biotinylated 12-mer peptide; threshold 0.2; ref Genera et al., 2021; cited from earlier work.
From the text: as §1

Test [10] concerns library of human PDZ domains (266 PDZ domains, 97% of the human PDZome). The experiment in a line: Holdup assay, PDZome-binding profile. Conditions: holdup against human PDZome; about 10% of the PDZome. Here is the method:
(§2) The holdup assay was conducted against the biotinylated peptide PBM-p38γ (Supplementary Material S1) following previously established protocols ([Vincentelli et al., 2015]; [Duhoo et al., 2019]) with some slight modifications. In summary, we utilized a high-throughput technique to measure the affinities and specificities of motifs in a library of human PDZ domains, which involved the use of both robotic and microfluidic methodologies. To achieve this, we expressed 266 PDZ domains fused with the Maltose Binding Protein (MBP) tag, which constituted 97% of the human PDZome. Bacterial extracts containing overexpressed PDZ domains were incubated with PBM peptide-coated resins in 96-well plates, then filtered and evaluated using microfluidic capillary electrophoresis to determine binding intensities (BIs) in the flowthroughs. […]
(§3) Then, we investigated the specificity profiles of the PBMs of the PTPN3-PDZ ligands p38γ and of HBc against the full human PDZome (library that contains all the known human PDZ domains) ([Duhoo et al., 2019]). […] 12-mer peptides encompassing the protein C-terminal PBM sequences linked to a biotinyl group are used as baits to quantify the interaction between PBMs and the library of human PDZ domains expressed in Escherichia coli ([Duhoo et al., 2019]). […]

The target in test [11] is T2, PTPN3-PDZ. The experiment in a line: Holdup assay (binding intensity), PTPN3-PDZ. Particulars: biotinylated 12-mer peptide on resin, MBP-PDZ bacterial extract, capillary electrophoresis, mean BI, significance threshold 0.2. Here is the method: as §2, §3
Test [12] deals with PTPN4-PDZ. The experiment in a line: Holdup assay (binding intensity), PTPN4-PDZ. Further details: species or system human. Particulars: biotinylated 12-mer peptide on resin, MBP-PDZ bacterial extract, capillary electrophoresis, mean BI, significance threshold 0.2. As for the experimental part: as §2, §3
Test [13] addresses PTPN3 PDZ domain (PTPN3-PDZ) (human, UniProt P26045-1 510-582, Limits taken from the PDB 6HKS/8OEP/8CQY entity (offset 483, N-terminal GAMGS tag remnant left out); the end at 597 agrees with the printed linker start at 598. 15N-labelled for NMR.). The experiment in a line: NMR titration; 1H,15N HSQC chemical shift perturbations of 15N-labelled PTPN3-PDZ (117 μM); PBM-TACE added stepwise, PDZ:peptide 1:0 to 1:8.5, 11 points; 15°C; 50 mM Tris/HCl pH 7.5, 150 mM NaCl, 0.5 mM TCEP, 5% D2O; 1:1 model, 14 peaks. Conditions: both partners purified.

Chain of HPV16 E6 PBM (Human papillomavirus type 16) (P03126 whole entry, looked up): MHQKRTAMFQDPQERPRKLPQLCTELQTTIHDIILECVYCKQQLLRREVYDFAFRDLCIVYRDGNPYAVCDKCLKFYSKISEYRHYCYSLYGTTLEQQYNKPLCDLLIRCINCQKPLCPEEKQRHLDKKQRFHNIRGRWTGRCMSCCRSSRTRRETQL
Chain of HPV18 E6 PBM (Human papillomavirus type 18) (P06463 whole entry, looked up): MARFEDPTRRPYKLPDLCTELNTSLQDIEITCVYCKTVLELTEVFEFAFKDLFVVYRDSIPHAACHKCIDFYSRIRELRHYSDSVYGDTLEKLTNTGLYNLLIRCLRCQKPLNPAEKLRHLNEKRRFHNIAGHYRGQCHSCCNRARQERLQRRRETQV

One may read the Kd as the concentration at which binding is half-saturated. With PTPN3 PDZ (from UniProt P26045), the dissociation constant Kd in [1] is 53 µM; in test [2], 29 µM; in [3] it was 37 µM; in test [4] it was 26 µM.

Molecule “PTPN3-PDZ of the holdup PDZome library (MBP fusion) (from UniProt P26045-1 510-582) (domain or fragment)” registered a binding intensity (BI) in test [5] of 0.52.

What is called Km is the concentration of substrate that gives half-maximal velocity. Take RRRRSQS R E S Q C [PBM-HBc]: in test [6], the Km was determined as 1.3 ± 0.1 mM and the “k cat of pNPP hydrolysis” value came to 1.6 ± 0.1 s^-1. Also, the “number of PDZ domains identified as significant binders” value in test [7] was 28 PDZ domains. Besides, in test [8], the “binding intensity (BI)” value is reported as 0.45. In addition, the “binding intensity (BI)” value in [9] was 0.58.

As for RSSRTR R E T Q L [PBM-16E6], in test [6], the Km stood at 0.8 ± 0.1 mM and the “k cat of pNPP hydrolysis” value turned out to be 1.5 ± 0.1 s^-1.

In the case of WARVS K E T P L [PBM-p38γ], the “number of PDZ domains with significant binding (BI greater than 0.2)” value in test [10] came to 28 PDZ domains. The Michaelis-Menten constant (Km) in test [6] amounted to 1.2 ± 0.3 mM. In test [6], the “k cat of pNPP hydrolysis” value is listed as 1.7 ± 0.2 s^-1. Also, the “binding intensity (BI)” value in [11] turned out to be 0.52; in test [12], 0.60.

B1: PTPN4-PDZ of the holdup PDZome library (MBP fusion) (domain or fragment)
chain: LIRMKPDENGRFGFNVKGGYDQKMPVIVSRVAPGTPADLCVPRLNEGDQVVLINGRDIAEHTHDQVVLFIKAS
In test [5], B1 registered a binding intensity (BI) of 0.6.

B2: PBM-TACE peptide (last C-terminal 12 residues of TACE) (peptide)
peptide: RQNRVDSKETEC
notes: last C-terminal 12 residues of TACE (tumor necrosis factor alpha-convertase, ADAM17), encompassing the PBM; also called PBM of the tumor necrosis factor-alpha converting enzyme; source: synthetic peptide (solid phase, Fmoc; Proteogenix)
Consider B2, for which the dissociation constant (Kd) in test [13] turned out to be 30 µM.
